This assay concerns M. tuberculosis H37Rv and two drug-resistant clinical isolates. The experiment in a line: MIC and MBC against M. tuberculosis in liquid Shkolnikova medium / Lowenstein-Jensen medium. Type of assay: cell-based, Mycobacterium tuberculosis. The following applies: for MIC (minimal inhibitory concentration) against Mycobacterium tuberculosis: mean values of the three strains (H37Rv and two drug-resistant clinical isolates), 14 days at 37° C.; for MBC (minimal bactericidal concentration) against Mycobacterium tuberculosis: mean values of the three strains, read after 21-28 days on solid drug free Lowenstein-Jensen medium.

Converted amounts (≈) assume the structure as drawn.

The values below come from patent US20050032822A1, “Dithiocarbamate derivatives and their use as antibacterial agents” (priority 2001, published 2005).

In the case of `CCN(CC)C(=S)Sc1ncnc(NC)c1[N+](=O)[O-]` [Subst. Nr. 4, 4-methylamino-6-diethyldithiocarbamoyl-5-nitropyrimidine], the “MIC (minimal inhibitory concentration) against Mycobacterium tuberculosis” value (shortened to “MIC (minimal inhibitory concentration)”) was determined as 6.25 µg/mL (≈ 20.7 µM) and the “MBC (minimal bactericidal concentration) against Mycobacterium tuberculosis” value (from here on “MBC (minimal bactericidal concentration)”) came out at 12.5 µg/mL (≈ 41.5 µM).

As for “4-isopropylamino-6-diethyldithiocarbamoyl-5-nitropyrimidine [Subst. Nr. 1]”, the “MIC (minimal inhibitory concentration)” value was 31.3 µg/mL and the “MBC (minimal bactericidal concentration)” value came out at 100.0 µg/mL.

Regarding `CCOc1nc(C)nc(SC(=S)N2CCCC2)c1[N+](=O)[O-]` [Subst. Nr. 10, 4-ethoxy-2-methyl-6-tetramethylenedithiocarbamoyl-5-nitropyrimidine], the “MIC (minimal inhibitory concentration)” value came to 5.21 µg/mL (≈ 15.9 µM) and the “MBC (minimal bactericidal concentration)” value worked out at 8.33 µg/mL (≈ 25.4 µM).

Consider `CN(C)C(=S)Sc1c(C#N)cc([N+](=O)[O-])cc1[N+](=O)[O-]` [Subst. Nr. 9, 3,5-dinitro-2-dimethyldithiocarbamoylbenzonitrile], for which the “MIC (minimal inhibitory concentration)” value was 4.78 µg/mL (≈ 15.3 µM) and the “MBC (minimal bactericidal concentration)” value amounted to 6.25 µg/mL (≈ 20 µM).

With `CCN(CC)C(=S)Sc1c(C#N)cc([N+](=O)[O-])cc1[N+](=O)[O-]` [Subst. Nr. 3, 3,5-dinitro-2-diethyldithiocarbamoylbenzonitril], the “MIC (minimal inhibitory concentration)” value is 5.37 µg/mL (≈ 15.8 µM) and the “MBC (minimal bactericidal concentration)” value was 7.29 µg/mL (≈ 21.4 µM).

In the case of `CNc1ncnc(SC(=S)N(C)C)c1[N+](=O)[O-]` [Subst. Nr. 7, 4-methylamino-6-dimethyldithiocarbamoyl-5-nitropyrimidine], the “MIC (minimal inhibitory concentration)” value stood at 7.78 µg/mL (≈ 28.5 µM) and the “MBC (minimal bactericidal concentration)” value is 10.42 µg/mL (≈ 38.1 µM).

Take `CCCOc1ncnc(SC(=S)N(C)C)c1[N+](=O)[O-]` [Subst. Nr. 11, 4-propoxy-6-dimethyldithiocarbamoyl-5-nitropyrimidine]: the “MIC (minimal inhibitory concentration)” value was determined as 9.37 µg/mL (≈ 31 µM) and the “MBC (minimal bactericidal concentration)” value came out at 12.5 µg/mL (≈ 41.3 µM).

Turning to `CNc1ncnc(SC(=S)N2CCCC2)c1[N+](=O)[O-]` [Subst. Nr. 12, 4-methylamino-6-tetramethylenedithiocarbamoyl-5-nitropyrimidine], the “MIC (minimal inhibitory concentration)” value was 3.64 µg/mL (≈ 12.2 µM) and the “MBC (minimal bactericidal concentration)” value stood at 8.33 µg/mL (≈ 27.8 µM).

In the case of `CN(C)c1ncnc(SC(=S)N2CCCC2)c1[N+](=O)[O-]` [Subst. Nr. 13, 4-dimethylamino-6-tetramethylenedithiocarbamoyl-5-nitropyrimidine], the “MIC (minimal inhibitory concentration)” value turned out to be 3.12 µg/mL (≈ 9.96 µM) and the “MBC (minimal bactericidal concentration)” value came to 6.25 µg/mL (≈ 19.9 µM).

With `CCOc1nc(C)nc(SC(=S)N(CC)CC)c1[N+](=O)[O-]` [Subst. Nr. 6, 4-ethoxy-2-methyl-6-diethyldithiocarbamoyl-5-nitropyrimidine], the “MIC (minimal inhibitory concentration)” value stood at 20.8 µg/mL (≈ 62.9 µM) and the “MBC (minimal bactericidal concentration)” value is 41.7 µg/mL (≈ 126 µM).

`CCN(CC)C(=S)Sc1ncnc(NC2CC2)c1[N+](=O)[O-]` [Subst. Nr. 2, 4-cyclopropylamino-6-diethyldithiocarbamoyl-5-nitropyrimidine]: the “MIC (minimal inhibitory concentration)” value is 20.8 µg/mL (≈ 63.5 µM) and the “MBC (minimal bactericidal concentration)” value is 29.1 µg/mL (≈ 88.9 µM).

Regarding `CN(C)C(=S)Sc1ncnc(N(C)C)c1[N+](=O)[O-]` [Subst. Nr. 8, 4-dimethylamino-6-dimethyldithiocarbamoyl-5-nitropyrimidine], the “MIC (minimal inhibitory concentration)” value was determined as 7.81 µg/mL (≈ 27.2 µM) and the “MBC (minimal bactericidal concentration)” value was determined as 12.5 µg/mL (≈ 43.5 µM).

Regarding `CCN(CC)C(=S)Sc1ncnc(N(C)O)c1[N+](=O)[O-]` [Subst. Nr. 5, 4-methylhydroxyamino-6-diethyldithiocarbamoyl-5-nitropyrimidine], the “MIC (minimal inhibitory concentration)” value is 9.38 µg/mL (≈ 29.6 µM) and the “MBC (minimal bactericidal concentration)” value turned out to be 12.5 µg/mL (≈ 39.4 µM).
